Measurements: patent US9663463B2, “3-azabicyclo[3.1.0]hexane derivative and use thereof for medical purpose” (priority 2013, dated 2017)
Where a name gives a salt, the structure may show the parent alone. Read-outs that look alike come from different tables or passages of the source.

Columns and labels:
hERG current = hERG current (Homo sapiens (Human), UniProt Q12809); assay: cell-based
Excerpt: A: the suppression rate (%) of the test substance in each cell
B: the average suppression rate (%) of the vehicle control group

human μ-opioid receptor = human μ-opioid receptor (Homo sapiens (Human), UniProt P35372); assay: Antagonist activity test using [35S]-GTPγS bond as index using human μ-opioid receptor-expressing cell membrane; format: biochemical
Experimental: Cells in which a human μ-opioid receptor had been highly expressed was purchased from ChanTest (Cleveland). The cells were cultured in a carbon dioxide gas culturing apparatus by using a Ham's F12 culture medium (Invitrogen) containing 10% of fetal bovine blood serum, 1% of non-essential amino acids, 0.4 mg/ml of G418, 100 U/ml of penicillin and 100 μg/ml of streptomycin. The cultured cells were suspended by using a 0.25% trypsin 1 mM EDTA solution, the suspension was collected by using phosphate-buffered saline and centrifuged at 4° C. and 1,000 rpm for 10 minute to remove the supernatant, whereby a cell mass was obtained. […] Similar homogenization and centrifugation operations were repeated on the sediment, a homogenized buffer was added again to the obtained sediment, and the resultant was similarly homogenized to give a membrane fraction solution. The obtained membrane fraction solution was dispensed, rapidly frozen and stored under freezing at −70° C. or less until use. Furthermore, the protein concentration of the obtained membrane fraction solution was measured by using a BCA protein Assay Kit (Cat. 23227, Pierce) according to the protocol attached to the kit.
The cell membrane fraction solution in which the human μ-opioid receptor had expressed, which had been stored under freezing, was melted, a GTP assay buffer (100 mM NaCl, 5 mM MgCl2, 1 mM EDTA-containing 50 mM Hepes (pH 7.4)) was added thereto, and the resultant was homogenized repeatedly twice by using a Polytron homogenizer (SMT Multi Disperser PB95) under ice cooling at 12,000 rpm for 20 seconds to give a homogeneous solution, and the homogeneous solution was diluted to 0.036 mg/ml with a GTP assay buffer containing 18.2 μM of GDP (final concentration: […]). The dilution was incubated for 15 minutes or more under ice cooling until the reaction was initiated. […] [^35S]-GTPγS (NEG030X, Perkinelmer) was diluted with a GTP assay buffer so as to be 0.616 nM (final concentration: 0.08 nM). The resultant was diluted with a GTP assay buffer so as to be 200 nM (final concentration: 10 nM) by using [D-Ala^2, N-Me-Phe^4, Gly^5-ol]-enkephalinacetate (DAMGO, Sigma) as a μ-opioid receptor agonist. WGA Coated PVT SPA Beads (RPNQ0001, Perkinelmer) were added so as to be 20 mg/ml with a GTP assay buffer, and the resultant was suspended (final concentration: 1 mg/well). 4 μL/well of a test substance solution, 10 μL/well of a DAMGO solution, 26 μL/well of a [^35S]-GTPγS solution, […] of a suspension liquid of WGA Coated PVT SPA Beads, and 110 μL/well of the membrane fraction solution were added to a 96 well plate (1450-401, Perkinelmer), the top part of the plate was sealed, and a reaction was performed at 30° C. for 60 minutes under stirring with a plate shaker. For each measurement plate, a well to which DMSO had been added instead of the test substance, and a well to which DMSO had been added instead of the test substance and a GTP assay buffer had been added instead of the DAMGO solution were prepared. Furthermore, after the reaction was completed, the reactant was centrifuged at room temperature and 1,000 rpm for 3 minutes, and the radioactivity was measured by a microplate scintillation luminescence counter (Perkinelmer).
The IC50 value of the test substance was calculated by using Graphpad Prism 5.

[1] = Plasma concentration of test substance at ED50 value (mice, LC/MS/MS); format: in vivo; details: at the ED50 value, at time of morphine administration, oral, linear regression from two doses
Experimental: The concentration of the test substances in blood plasma was confirmed by using mice of the same week-old for the same dose as that used in the evaluation of the anti-pruritic effect. The test substance was administered by forced oral administration of an administration vehicle prepared in a similar manner to that in the evaluation of the anti-pruritic effect under a non-fasting condition. The blood samples were collected from the orbital venous plexus, within from 15 minutes after the administration of the test substance to after 180 minutes at the maximum, for multiple times including the timing at which the morphine solution was intracisternally administered, under inhalation anesthesia with diethyl ether or isoflurane using a heparin-treated hematocrit tubes. The collected blood samples were immediately ice-cooled and centrifuged at 1,800 g for 15 minutes at 4° C., and the plasma fractions were transferred and stored under freezing at −30° C. or less until measurement.
The concentrations of the test substances in plasma were measured using LC/MS/MS. Furthermore, as the measurement samples for LC/MS/MS, the supernatants obtained by adding an internal standard substance and acetonitrile in an amount within a range from 5-fold to 10-fold of the amount of the plasma to the collected plasma samples, and removing proteins therefrom, was used.

hERG = hERG (Homo sapiens (Human), UniProt Q12809); assay: Safety margin against hERG inhibitory activity; details: hERG IC50×1000/{concentration in plasma at ED50×(1−protein binding rate/100)}
Experimental: In order to compare the risks of extension of QT interval prolongation in the electrocardiogram among the test substances, the safety margins against the hERG inhibitory effect were calculated. […] Therefore, the following formula was used for calculating the safety margin, and the obtained values were described in Table 7. Safety margin against hERG inhibitory effect=IC50×1000/{concentration in plasma×(1−protein binding rate/100)}
IC50: the IC50 value in a hERG inhibition assay (μM)
Plasma concentration: the plasma concentration of test substance (nM) at the ED50 value in the test for evaluating the anti-pruritic effect in the morphine model
Protein binding rate: the protein binding rate (%) in the protein binding assay in murine serum

[2] = test system: pruritus mice model to which morphine had been intracisternally administered; assay: Anti-pruritic effect in pruritus mice model to which morphine had been intracisternally administered; format: in vivo; details: oral administration, male ICR mice, inhibition of morphine-induced scratching behavior
Experimental: As experimental animals, male ICR (Cr1j: CD1 (ICR): Charles River Japan) mice were used at 5 to 6-week old. The mice were placed in an acrylic cage (colorless and transparent, W 13.5 cm×D 9.5 cm×H 40 cm) for observing scratching behavior for 30 minutes or more to thereby allow the mice to get used to the observation environment, and the test substance solutions were forcedly orally administered to the test substance-administered groups. In addition, an administration vehicle was forcedly orally administered to the normal control group and the pathological control group. A necessary amount of the test substance was weighed and formed into a micropowder in an agate mortar, an administration vehicle, a 0.5 w/v % methyl cellulose 400 solution (Wako Pure Chemical Industries Ltd.) was added little by little, and preparation was performed by suspending or dissolving so as to give an intended concentration (from 0.025 to 3 mg/ml). The test doses were preset to suitable doses in the range in which the maximum dose is 30 mg/10 ml/kg.
Based on 30 minutes after the forced oral administration of the test substance as a criterion, the time for the intracisternal administration of morphine was suitably set up to 120 minutes after at the maximum, with consideration for the times of maximum plasma concentration of the respective test substances, in the case when the in vivo pharmacokinetics of the test substance had been confirmed in advance. Furthermore, saline was intracisternally administered to the normal control group, and the above-mentioned morphine solution was intracisternally administered to the pathogenic control group, so as to be 5 μL/site at the same time as that of the test substance group after the forced oral administration of the administration vehicle in either case.
The behavior of each mouse within 60 minutes from the intracisternal administration of the morphine solution or saline was recorded by a digital video camera that was installed immediately above the acrylic cage, the images were stored in a digital video recorder, and the number of frequency of the scratching behavior was measured. The number of frequency of the scratching behavior was measured with deeming a behavior in which the mouse raised its hindlimb, scratched the facial surface and the peripheral sites thereof, and got the hindlimb off from the body within 30 minutes from after the intracisternal administration of the morphine or saline as one time.
The anti-pruritic effect of each test substance was obtained as follows. As an inhibition ratio against the number of frequency of the scratching behavior on the pathological control group, the inhibition ratio (%) of the respective individuals and the average value thereof were calculated from the following formula, and an ED50 value was calculated based on the obtained inhibition ratio. Inhibition ratio of each individual (%)={1−(A−Vehicle)/(Morphine−Vehicle)}×100 Morphine: the average of the scratching number of the pathological control group Vehicle: the average of the scratching number of the normal control group A: the scratching number of each individual in the test substance-administered group

in vitro = in vitro ADME, mice; details: Crl:CD-1 (ICR), mouse, pH 7.4; murine serum, equilibrium dialysis, 37° C., 5 to 6 hours; read-out: Protein binding rate (converted)
Experimental: (§1) The protein binding rate was determined by equilibrium dialysis method using the RED Device (8K MWCO, Rapid Equilibrium Dialysis Device, Thermo Scientific). The test substances that had been dissolved in DMSO were added to the serum that was collected from Crl: CD-1 (ICR) mice fasted overnight, so that the final concentration of DMSO became 1% (v/v). The serum to which the test substance had been added was added to the inner side of the dialysis membrane of the RED Device, and PBS (phosphate buffer saline, pH 7.4) containing 0.01% (v/v) Tween 80 was added to the outside in accordance with the method for using the RED Device and incubated at 37° C. for 5 to 6 hours with ellipsoidal shaking at 100 rpm so that the concentration of the unbound test substance in the serum and the concentration of the test substance in the PBS reached equilibrium. After the incubation was completed, the respective solutions were collected and stored under freezing at −60° C. or less as measurement samples. The proteins were removed from the measurement sample by adding acetonitrile in an amount of 5-fold or more of the amount of the internal standard substance and the serum sample, and the supernatants were measured by LC/MS/MS (liquid chromatograph—triple quadrupole mass spectrometer). The serum samples were measured after suitably diluting with distilled water as necessary.
(§2) A: the concentration of the test substance in the PBS sample
(§3) B: the concentration of the test substance in the serum sample

Mice serum protein = assay: in vitro; format: in vitro ADME; details: murine serum, equilibrium dialysis, 37° C., 5 to 6 hours
Experimental: as §1, §2, §3

Sequence of hERG current (Q12809 whole entry): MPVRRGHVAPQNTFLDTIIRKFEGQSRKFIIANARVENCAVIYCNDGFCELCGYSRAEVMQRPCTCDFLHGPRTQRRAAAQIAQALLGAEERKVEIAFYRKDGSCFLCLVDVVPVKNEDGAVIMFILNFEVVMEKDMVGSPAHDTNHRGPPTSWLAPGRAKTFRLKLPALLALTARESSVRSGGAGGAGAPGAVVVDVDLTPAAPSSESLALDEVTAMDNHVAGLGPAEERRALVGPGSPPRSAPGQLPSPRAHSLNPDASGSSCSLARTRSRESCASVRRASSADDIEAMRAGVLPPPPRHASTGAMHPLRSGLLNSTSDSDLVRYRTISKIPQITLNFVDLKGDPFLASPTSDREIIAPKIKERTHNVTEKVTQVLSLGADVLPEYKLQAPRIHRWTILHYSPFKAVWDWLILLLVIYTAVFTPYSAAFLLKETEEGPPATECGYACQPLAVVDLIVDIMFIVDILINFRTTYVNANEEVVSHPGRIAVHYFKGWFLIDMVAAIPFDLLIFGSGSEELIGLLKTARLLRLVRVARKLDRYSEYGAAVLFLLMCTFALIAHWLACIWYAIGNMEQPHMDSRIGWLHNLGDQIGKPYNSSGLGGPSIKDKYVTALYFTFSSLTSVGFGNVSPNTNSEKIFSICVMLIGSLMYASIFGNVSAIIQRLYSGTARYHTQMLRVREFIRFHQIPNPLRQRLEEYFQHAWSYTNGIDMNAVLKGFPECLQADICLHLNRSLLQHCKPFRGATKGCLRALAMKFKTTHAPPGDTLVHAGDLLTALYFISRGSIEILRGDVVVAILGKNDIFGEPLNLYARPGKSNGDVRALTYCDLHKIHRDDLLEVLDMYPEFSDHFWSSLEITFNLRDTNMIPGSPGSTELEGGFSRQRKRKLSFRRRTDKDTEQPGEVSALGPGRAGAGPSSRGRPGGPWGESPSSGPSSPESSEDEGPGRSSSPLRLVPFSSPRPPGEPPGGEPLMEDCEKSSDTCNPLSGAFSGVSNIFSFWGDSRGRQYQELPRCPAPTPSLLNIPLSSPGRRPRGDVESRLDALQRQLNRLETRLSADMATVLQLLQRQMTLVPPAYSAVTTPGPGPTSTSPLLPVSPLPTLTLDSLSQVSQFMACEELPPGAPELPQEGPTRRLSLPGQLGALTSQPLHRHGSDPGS

| Structure (SMILES) | IC50 (hERG current) | IC50 (human μ-opioid receptor) | Plasma concentration of test substance [1] | Safety margin (hERG) | ED50 ([2]; Mus musculus, read-out: ED50) | fraction unbound (in vitro) | Protein binding rate (Mice serum protein) | IC50 (human μ-opioid receptor; inhibition of DAMGO (10 nM)-stimulated [35S]-GTPγS binding, human μ-opioid receptor membrane, read-out: IC50) | ED50 [2] |
| --- | --- | --- | --- | --- | --- | --- | --- | --- | --- |
| CC[C@]1(c2cccc(NS(=O)(=O)C3CC3)c2)[C@@H]2CN(CCCN3CCC(F)(F)CC3)C[C@@H]21 [Example 7-(b), N-(3-{(1R,5S,6r)-3-[3-(4,4-difluoropiperidin-1-yl)propyl]-6-ethyl-3-azabicyclo[3.1.0]hexan-6-yl}phenyl)cyclopropanesulfonamide hydrochloride] | 1200 nM | 1.4 nM | 21.5 nM | 375 | 2.4 mg/kg |  |  |  |  |
| CC[C@]1(c2cccc(NS(=O)(=O)C3CC3)c2)[C@@H]2CN(CC3(O)Cc4ccccc4C3)C[C@@H]21 [Example 1-(a), N-(3-{(1R,5S,6r)-6-ethyl-3-[(2-hydroxy-2,3-dihydro-1H-inden-2-yl)methyl]-3-azabicyclo[3.1.0]hexan-6-yl}phenyl)cyclopropanesulfonamide] | 110 nM |  | 70.8 nM | 82 | 3.5 mg/kg | 0.019 |  |  |  |
| CC[C@]1(c2cccc(NS(=O)(=O)C3CC3)c2)[C@@H]2CN(CC3(OC)Cc4ccccc4C3)C[C@@H]21 [Example 3-(b), N-(3-{(1R,5S,6r)-6-ethyl-3-[(2-methoxy-2,3-dihydro-1H-inden-2-yl)methyl]-3-azabicyclo[3.1.0]hexan-6-yl}phenyl)cyclopropanesulfonamide hydrochloride] | 580 nM | 3.6 nM | 48.8 nM | 1980 | 4.2 mg/kg |  |  |  |  |
| CC[C@]1(c2cccc(NS(C)(=O)=O)c2)[C@@H]2CN(CC3(O)Cc4ccccc4C3)C[C@@H]21.CS(=O)(=O)O [Comparative compound 1, N-(3-{(1R,5S,6r)-6-ethyl-3-[(2-hydroxy-2,3-dihydro-1H-inden-2-yl)methyl]-3-azabicyclo[3.1.0]hexan-6-yl}phenyl)methanesulfonamide methanesulfonate, reference compound] |  |  | 157 nM |  |  |  | 93.2% | 1.3 nM | 2.6 mg/kg |
| C[C@]1(c2cccc(NS(=O)(=O)C3CC3)c2)[C@@H]2CN(CC3(O)Cc4ccccc4C3)C[C@@H]21 [Example 17-(b), N-(3-{(1R,5S,6r)-3-[(2-hydroxy-2,3-dihydro-1H-inden-2-yl)methyl]-6-methyl-3-azabicyclo[3.1.0]hexan-6-yl}phenyl)cyclopropanesulfonamide hydrochloride] | 130 nM | 5.4 nM | 68.2 nM | 48 | 1.5 mg/kg |  |  |  |  |
